Test results as given in publication PMC12301332, “Biased antagonism of a series of bicyclic CXCR2 intracellular allosteric modulators” (Frontiers in Pharmacology, 2025).

What was measured:
CXCR2 [1] = target: T1, CXCR2 (Homo sapiens, UniProt P25025); test: Bias analysis (bias plot, bias index) of β-arrestin1 recruitment inhibition versus Gαi1 activation inhibition, navarixin as reference; assay type: cell-based; details: for bias index vs navarixin, statistical significance (H1): one-sample T-test; for differences in bias index between the various CXCR2 ligands (H2): one-way ANOVA followed by Tukey's test
T1 construct: expressed in transfected cells
T1 sequence (P25025 1-360): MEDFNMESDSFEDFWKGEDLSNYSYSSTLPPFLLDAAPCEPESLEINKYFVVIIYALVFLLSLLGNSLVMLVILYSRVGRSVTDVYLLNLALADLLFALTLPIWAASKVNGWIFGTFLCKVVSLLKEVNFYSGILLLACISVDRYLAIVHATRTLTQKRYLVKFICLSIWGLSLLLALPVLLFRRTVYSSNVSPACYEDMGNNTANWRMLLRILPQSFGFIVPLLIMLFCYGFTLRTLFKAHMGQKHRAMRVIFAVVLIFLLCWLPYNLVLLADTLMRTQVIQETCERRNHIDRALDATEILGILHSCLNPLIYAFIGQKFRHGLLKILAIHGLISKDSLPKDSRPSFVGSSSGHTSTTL
Method: For signaling bias calculations, constraints were set to bottom values equal to zero. The calculated top values generated by nonlinear fit log (inhibitor) vs response (three parameters) in GraphPad 10.2.1 were taken as Imax. […] The bias index values were calculated, as is shown in calculation 2. Briefly, log(Imax/IC50) was calculated. […] Finally, the bias index was calculated by subtracting the ∆log (Imax/IC50) of the tested compound from the stated reference pathway from that of the pathway of interest. […] The statistical significance of H1 was evaluated using a one-sample T-test with Benjamini-Hochberg correction applied for multiple comparisons, whereas H2 was assessed using a one-way ANOVA followed by Tukey’s test.
Bias index=∆LogImax/IC50P1:β−arr1−∆LogImax/IC50P2:Gai1 .
Bias plots are equimolar comparisons between the two pathways of interest.

CXCR2 [2] = target: T1, CXCR2; parameters: method as in Van Hoof et al., 2022; details: ref Van Hoof et al., 2022; cited from earlier work

SMILES: CC(CO)Nc1nc(SCc2cccc(F)c2F)nc2cnccc12 (stereo not shown) [MVH-3]
- bias index vs navarixin, statistical significance (H1) (CXCR2 [1]; CXCL1-induced responses): highly significant
- bias index vs navarixin, statistical significance (H1) (CXCR2 [1]; CXCL2, CXCL5, and CXCL6 responses): nonsignificantly different from navarixin
- differences in bias index between the various CXCR2 ligands (H2) (CXCR2 [1]): statistically significant
- calcium mobilization antagonism (CXCR2 [2]): potent

SMILES: CC(CCO)Nc1nc(SCc2cccc(F)c2F)nc2[nH]nnc12 (stereo not shown) [MVH-33]
- differences in bias index between the various CXCR2 ligands (H2) (CXCR2 [1]): statistically significant

SMILES: CC(CO)Nc1nc(SCc2cccc(F)c2F)nc2oncc12 (stereo not shown) [MVH-24]
- bias index vs navarixin, statistical significance (H1) (CXCR2 [1]; CXCL1-, CXCL2-, CXCL5-, CXCL6-, and CXCL8-induced responses): nonsignificantly different from navarixin
- calcium mobilization antagonism (CXCR2 [2]): most potent
